Assay results taken from patent US4981792A, “Immunosuppressant compound” (Merck & Co., Inc., priority 1988, dated 1991).
“And” between values parts separate entries of the source, which are not always exact repeats. Equal values may be shown once. “Also recorded” adds a separate entry of the source. Read-outs that look alike come from different tables or passages of the source.

Key:
[1] = reputed; immunosuppressant, vs cyclosporin; cited from earlier work
mouse T lymphocytes = test: T-cell proliferation assay (ionomycin plus PMA induced, tritiated thymidine uptake); format: cell-based, mouse (C57Bl/6)
Procedure: The principle of this assay is to measure the proliferation of mouse T lymphocytes stimulated with the combination of ionomycin plus PMA. A positive sample in this assay will inhibit T-cell proliferation, as indicated by reduced tritiated thymidine uptake.
Purified demethomycin, as prepared by HPLC above, was dissolved in absolute ethanol at 1 mg/ml.
Spleens from C57Bl/6 mice were taken under sterile conditions and gently dissociated in ice-cold RPMI 1640 culture medium (GIBCO, Grand Island, N.Y.) supplemented with 10% heat-inactivated fetal calf serum (GIBCO). Cells were pelleted by centrifugation at 1500 rpm for 8 minutes. Contaminating red cells were removed by treating the pellet with ammonium chloride lysing buffer (GIBCO) for 2 minutes at 4° C. Cold medium was added and cells were again centrifuged at 1500 rpm for 8 minutes. T lymphocytes were then isolated by separation of the cell suspension on nylon wool columns as follows: Nylon wool columns were prepared by packing approximately 4 grams of washed and dried nylon wool into 20 ml plastic syringes. The columns were sterilized by autoclaving at 250° F. for 30 minutes. Nylon wool columns were wetted with warm (37° C.) culture medium and rinsed with the same medium. Washed spleen cells resuspended in warm medium were slowly applied to the nylon wool. The columns were then incubated in an upright position at 37° C. for 1 hour. Non-adherent T lymphocytes were eluted from the columns with warm culture medium and the cell suspensions were spun as above.
Purified T lymphocytes were resuspended at 2.5×10^5 cells/ml in complete culture medium composed of RPMI 1640 medium with 10% neat-inactivated fetal calf serum, […], 1 mM sodium pyruvate, 2×10^-5 M 2-mercaptoethanol and 50 μg/ml gentamycin. Ionomycin was added at 250 ng/ml and PMA at 10 ng/ml. The cell suspension was immediately distributed into 96 well flat-bottom microculture plates (Costar) at 200 μl/well. The control, being the medium without test drug, and various below-indicated dilutions of the sample (above-describedpurified demethomycin; to be tested were then added in triplicate wells at 20 μl/well. L-679,934 was used as a standard. The culture plates were then incubated at 37° C. in a humidified atmosphere of 5% CO2 -95% air for 44 hours. The proliferation of T lymphocytes was assessed by measurement of tritiated thymidine incorporation. After 44 hours of culturing, the cells were pulse-labelled with 2 μCi/well of tritiated thymidine (NEN, Cambridge, MA). After another 4 hours of incubation, cultures were harvested on glass fiber filters using a multiple sample narvester. Radioactivity of filter discs corresponding to individual wells was measured by standard liquid scintillation counting methods (Betacounter). Mean counts per minute of replicate wells were calculated and the results expressed as percent inhibition of tritiated thymidine uptake (proliferation) as follows: [formula]
1. Mouse T cell cultures were pulsed with ^3 Hthymidine for 4 hours
prior to harvesting at 48 hours.

| Structure (SMILES) | effectiveness relative to cyclosporin [1] | inhibition at 0.01 µg/mL (mouse T lymphocytes; Mus musculus, T-lymphocyte, read-out: % inhibition of T-cell proliferation (standard)) | Reversal of inhibition of T-cell proliferation by recombinant IL2 (mouse T lymphocytes; 50 μ/ml of IL2 (recombinant IL2) added at initiation of culture) | inhibition at 0.00029 µg/mL (mouse T lymphocytes; Mus musculus, T-lymphocyte, 0.29 ng/ml, harvest at 48 hours) | inhibition at 0.00044 µg/mL (mouse T lymphocytes; Mus musculus, T-lymphocyte, 0.44 ng/ml, harvest at 48 hours) | inhibition at 0.00066 µg/mL (mouse T lymphocytes; Mus musculus, T-lymphocyte, 0.66 ng/ml, harvest at 48 hours) | inhibition at 0.00099 µg/mL (mouse T lymphocytes; Mus musculus, T-lymphocyte, 0.99 ng/ml, harvest at 48 hours) | inhibition at 0.0015 µg/mL (mouse T lymphocytes; Mus musculus, T-lymphocyte, 1.5 ng/ml, harvest at 48 hours) | inhibition at 0.0022 µg/mL (mouse T lymphocytes; Mus musculus, T-lymphocyte, 2.2 ng/ml, harvest at 48 hours) | inhibition at 0.0033 µg/mL (mouse T lymphocytes; Mus musculus, T-lymphocyte, 3.3 ng/ml, harvest at 48 hours) | inhibition at 0.005 µg/mL (mouse T lymphocytes; Mus musculus, T-lymphocyte, 5 ng/ml, harvest at 48 hours) | IC50 (mouse T lymphocytes; Mus musculus, T-lymphocyte, T-cell proliferation, harvest at 48 hours, read-out: IC50) | IC50 (mouse T lymphocytes; Mus musculus, T-lymphocyte, generally in the range, read-out: IC50, general range) | immunosuppressive activity / inhibition of T-cell activation (qualitative) (mouse T lymphocytes; T-cell proliferation assay) |
| --- | --- | --- | --- | --- | --- | --- | --- | --- | --- | --- | --- | --- | --- | --- |
| C=CC[C@@H]1/C=C(\C)C[C@H](C)C[C@H](OC)[C@H]2O[C@@](O)(C(=O)C(=O)N3CCCC[C@H]3C(=O)O[C@H](/C(C)=C/[C@@H]3CC[C@@H](O)[C@H](OC)C3)[C@H](C)[C@@H](O)CC1=O)[C@H](C)C[C@@H]2OC [L-679,934, reference compound] | 100 times | 99% | – | – | – | – | – | – | – | – | – | – | – | – |
| C=CC[C@@H]1/C=C(\C)C[C@H](C)C[C@H](OC)[C@H]2O[C@@](O)(C(=O)C(=O)N3CCCC[C@H]3C(=O)O[C@H](/C(C)=C/[C@@H]3CC[C@@H](O)[C@H](O)C3)[C@H](C)[C@@H](O)CC1=O)[C@H](C)C[C@@H]2OC [demethomycin, 31-desmethoxy-31-hydroxy-L-679,934] | – | – | reversed | 0% | 0% | 36.8% | 67.1% | 80.5% | 92.9% | 97.2% | 98.1% | 0.00086 µg/mL and 1.09 nM | 600 to 1200 pM | positive inhibition of T-cell activation; also recorded: positive immunosuppressive activity |
